# The source made the active and inactive calls.
# Assays:
# [1] = target: T1, Protein skinhead-1 (Caenorhabditis elegans, UniProt P34707); format: functional
# T1 sequence (P34707 whole entry): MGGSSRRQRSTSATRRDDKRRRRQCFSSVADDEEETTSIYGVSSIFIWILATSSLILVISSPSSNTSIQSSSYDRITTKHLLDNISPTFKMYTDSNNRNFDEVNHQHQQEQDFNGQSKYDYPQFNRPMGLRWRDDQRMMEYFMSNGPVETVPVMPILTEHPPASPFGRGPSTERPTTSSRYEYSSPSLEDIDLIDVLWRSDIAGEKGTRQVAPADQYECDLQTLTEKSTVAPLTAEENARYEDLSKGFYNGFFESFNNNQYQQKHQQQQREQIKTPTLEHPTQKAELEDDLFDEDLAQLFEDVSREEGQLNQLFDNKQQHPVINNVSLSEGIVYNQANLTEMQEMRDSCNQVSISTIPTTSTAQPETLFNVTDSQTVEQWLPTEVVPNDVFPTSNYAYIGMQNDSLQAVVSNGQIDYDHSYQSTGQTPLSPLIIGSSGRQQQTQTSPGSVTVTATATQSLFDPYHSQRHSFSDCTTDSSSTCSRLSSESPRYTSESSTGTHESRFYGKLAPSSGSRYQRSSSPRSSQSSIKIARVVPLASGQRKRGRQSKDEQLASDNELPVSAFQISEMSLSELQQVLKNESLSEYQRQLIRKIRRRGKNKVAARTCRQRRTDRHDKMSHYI
# [2] = target: Cytochrome P450 3A4 (Homo sapiens, UniProt P08684);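 further: CYP3A4 tested as one member of a cytochrome P450 panel screen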
# Chain of Cytochrome P450 3A4 (P08684 whole entry): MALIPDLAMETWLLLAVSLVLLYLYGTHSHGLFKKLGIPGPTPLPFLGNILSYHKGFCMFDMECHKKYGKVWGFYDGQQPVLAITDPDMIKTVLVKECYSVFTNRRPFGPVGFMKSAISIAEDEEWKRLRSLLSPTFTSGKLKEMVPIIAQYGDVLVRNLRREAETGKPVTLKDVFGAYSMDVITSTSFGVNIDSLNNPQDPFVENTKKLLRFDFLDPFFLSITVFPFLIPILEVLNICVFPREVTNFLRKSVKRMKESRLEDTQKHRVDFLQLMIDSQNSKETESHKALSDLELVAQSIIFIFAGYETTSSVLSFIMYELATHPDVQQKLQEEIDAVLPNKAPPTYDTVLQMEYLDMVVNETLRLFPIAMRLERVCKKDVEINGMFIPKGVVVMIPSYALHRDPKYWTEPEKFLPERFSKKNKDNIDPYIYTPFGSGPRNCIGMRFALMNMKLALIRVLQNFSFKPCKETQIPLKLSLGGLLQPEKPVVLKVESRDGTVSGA
# [3] = target: T2, Microphthalmia-associated transcription factor (Homo sapiens, UniProt O75030); assay: reducers of TRPM1 reporter luminescence, concentration series – cell-based, SK-MEL-5, cherry-picked, set 3, MITF inhibitor project, dose response (AID 493073); format: functional;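 further: SK-MEL-5 melanoma cells with luciferase driven by the MITF target TRPM1 promoter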
# T2 sequence (O75030 whole entry): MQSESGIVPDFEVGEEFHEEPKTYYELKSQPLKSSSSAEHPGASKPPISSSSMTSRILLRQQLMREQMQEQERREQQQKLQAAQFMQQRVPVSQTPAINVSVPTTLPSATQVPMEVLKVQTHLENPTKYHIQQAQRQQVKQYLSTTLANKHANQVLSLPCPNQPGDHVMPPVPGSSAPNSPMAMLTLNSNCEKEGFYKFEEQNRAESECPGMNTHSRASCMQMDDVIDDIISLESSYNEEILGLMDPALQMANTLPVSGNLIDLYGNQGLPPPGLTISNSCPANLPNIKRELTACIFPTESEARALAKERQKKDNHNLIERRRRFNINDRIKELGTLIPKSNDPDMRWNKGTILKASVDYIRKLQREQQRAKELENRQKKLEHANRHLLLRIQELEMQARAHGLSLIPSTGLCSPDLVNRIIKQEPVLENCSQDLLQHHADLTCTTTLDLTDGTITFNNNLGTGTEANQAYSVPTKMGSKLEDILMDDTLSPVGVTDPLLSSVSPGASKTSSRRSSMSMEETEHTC
# [4] = target: T3, Corticotropin-releasing factor receptor 2/Corticotropin-releasing factor-binding protein (Homo sapiens, UniProt P24387+Q13324); assay: Dose Response confirmation of uHTS hits for small molecule antagonists of the CRF-binding protein and CRF-R2 receptor complex.; format: functional; settings: read-out: IC50_Mean
# T3 sequence (Q13324 whole entry): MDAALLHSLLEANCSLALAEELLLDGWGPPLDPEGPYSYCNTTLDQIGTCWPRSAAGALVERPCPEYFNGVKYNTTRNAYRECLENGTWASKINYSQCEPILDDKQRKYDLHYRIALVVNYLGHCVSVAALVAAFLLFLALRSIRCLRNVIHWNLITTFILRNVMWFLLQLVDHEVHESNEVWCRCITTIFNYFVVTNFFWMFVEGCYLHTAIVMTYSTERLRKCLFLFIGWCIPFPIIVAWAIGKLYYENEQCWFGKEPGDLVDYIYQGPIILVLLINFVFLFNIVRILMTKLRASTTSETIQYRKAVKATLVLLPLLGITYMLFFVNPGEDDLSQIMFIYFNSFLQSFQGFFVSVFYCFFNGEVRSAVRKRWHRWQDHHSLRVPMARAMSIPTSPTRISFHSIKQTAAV
# T3 sequence (P24387 whole entry): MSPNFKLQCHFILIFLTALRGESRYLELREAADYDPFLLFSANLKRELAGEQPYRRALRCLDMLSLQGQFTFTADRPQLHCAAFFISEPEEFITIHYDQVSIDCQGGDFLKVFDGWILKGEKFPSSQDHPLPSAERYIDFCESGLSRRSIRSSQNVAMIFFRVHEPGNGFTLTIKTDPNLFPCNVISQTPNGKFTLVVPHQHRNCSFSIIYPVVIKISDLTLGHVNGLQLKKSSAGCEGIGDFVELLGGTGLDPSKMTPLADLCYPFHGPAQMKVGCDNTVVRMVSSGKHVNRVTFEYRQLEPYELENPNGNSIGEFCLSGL
# [5] = target: T3, Corticotropin-releasing factor receptor 2/Corticotropin-releasing factor-binding protein; assay: activators of CRF receptor 2 with binding protein – uHTS hits, confirmation (AID 602473); format: functional; settings: read-out: EC50_Mean
# [6] = blockers of CRF-binding protein–CRF-R2 complex – cell-based, uHTS hits, 384-well, dose response (AID 651639); format: functional, Homo sapiens; settings: read-out: IC50_Mean
# [7] = target: Glyceraldehyde-3-phosphate dehydrogenase (Homo sapiens, UniProt P04406)
# Chain of Glyceraldehyde-3-phosphate dehydrogenase (P04406 whole entry): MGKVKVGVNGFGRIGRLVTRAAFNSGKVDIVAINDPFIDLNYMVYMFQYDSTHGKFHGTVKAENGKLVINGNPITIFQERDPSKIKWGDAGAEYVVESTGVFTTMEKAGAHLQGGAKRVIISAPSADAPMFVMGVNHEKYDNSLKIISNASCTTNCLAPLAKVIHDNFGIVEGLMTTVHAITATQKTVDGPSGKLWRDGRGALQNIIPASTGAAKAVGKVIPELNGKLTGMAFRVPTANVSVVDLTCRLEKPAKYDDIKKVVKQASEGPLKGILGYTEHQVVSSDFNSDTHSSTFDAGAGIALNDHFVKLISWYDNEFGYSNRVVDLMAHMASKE
# [8] = target: T4, Alkaline phosphatase, tissue-nonspecific isozyme (Homo sapiens, UniProt P05186); assay: potency against alkaline phosphatase TNAP – biochemical, luminescent, dose response, SAR follow-up (AID 1056)
# T4 sequence (P05186 whole entry): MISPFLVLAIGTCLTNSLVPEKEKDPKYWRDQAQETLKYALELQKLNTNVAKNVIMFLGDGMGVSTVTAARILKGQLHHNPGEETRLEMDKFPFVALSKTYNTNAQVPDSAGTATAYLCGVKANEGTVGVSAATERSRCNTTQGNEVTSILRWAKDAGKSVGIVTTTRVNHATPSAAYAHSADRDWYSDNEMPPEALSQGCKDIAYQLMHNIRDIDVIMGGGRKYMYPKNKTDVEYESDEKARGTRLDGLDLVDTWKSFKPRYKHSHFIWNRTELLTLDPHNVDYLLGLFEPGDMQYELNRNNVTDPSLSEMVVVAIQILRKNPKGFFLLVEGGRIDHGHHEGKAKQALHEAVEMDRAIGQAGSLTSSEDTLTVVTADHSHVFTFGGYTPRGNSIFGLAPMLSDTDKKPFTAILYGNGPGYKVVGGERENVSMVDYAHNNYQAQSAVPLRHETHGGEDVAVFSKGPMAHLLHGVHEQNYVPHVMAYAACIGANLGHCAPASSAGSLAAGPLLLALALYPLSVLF
# [9] = system: Vero; assay: viability of Vero cells under compound – cytotoxicity control for flavivirus capping enzyme inhibitors (AID 588742); format: functional; settings: Chlorocebus sabaeus
# [10] = target: Genome polyprotein (dengue virus type 2, UniProt P29990); assay: flavivirus cap methylation enzyme inhibition – biochemical, confirmation dose response, primary screen (AID 588689); format: functional
# Chain of Genome polyprotein (P29990 2492-3391 limits assumed): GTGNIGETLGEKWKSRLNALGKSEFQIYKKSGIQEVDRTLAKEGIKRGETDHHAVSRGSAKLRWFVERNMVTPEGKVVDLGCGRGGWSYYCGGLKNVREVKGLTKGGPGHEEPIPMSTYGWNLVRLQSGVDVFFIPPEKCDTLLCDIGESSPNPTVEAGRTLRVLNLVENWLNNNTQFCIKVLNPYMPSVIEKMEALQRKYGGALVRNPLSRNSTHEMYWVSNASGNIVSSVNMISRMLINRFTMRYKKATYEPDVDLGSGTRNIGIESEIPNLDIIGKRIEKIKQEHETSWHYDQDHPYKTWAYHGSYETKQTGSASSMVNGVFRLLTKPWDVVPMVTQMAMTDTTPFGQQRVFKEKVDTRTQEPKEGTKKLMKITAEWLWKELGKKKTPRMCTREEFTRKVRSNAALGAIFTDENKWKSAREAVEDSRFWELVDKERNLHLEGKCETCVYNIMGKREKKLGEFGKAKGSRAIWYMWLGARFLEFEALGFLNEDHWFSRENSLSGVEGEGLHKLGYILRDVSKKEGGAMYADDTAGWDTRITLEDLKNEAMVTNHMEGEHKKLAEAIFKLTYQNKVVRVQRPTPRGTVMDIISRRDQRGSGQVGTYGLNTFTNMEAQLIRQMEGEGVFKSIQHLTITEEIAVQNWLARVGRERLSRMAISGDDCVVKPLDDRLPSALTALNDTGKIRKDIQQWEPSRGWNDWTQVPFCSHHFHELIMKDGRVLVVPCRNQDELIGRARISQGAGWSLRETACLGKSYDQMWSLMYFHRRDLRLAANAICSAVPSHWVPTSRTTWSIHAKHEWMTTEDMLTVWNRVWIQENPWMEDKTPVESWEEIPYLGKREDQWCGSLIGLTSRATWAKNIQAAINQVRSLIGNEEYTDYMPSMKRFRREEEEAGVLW
# [11] = system: Streptococcus sp. 'group A'; assay: Streptococcus pyogenes SK(-)GAS viability under kanamycin – luminescence, BacTiterGlo, confirmation, counter-screen for streptokinase expression inhibitor project, dose response (AID 1900); format: functional, organism-based
# [12] = target: T5, Streptokinase A (Streptococcus pyogenes serotype M1, UniProt P10520); assay: viability-normalized secreted streptokinase activity reduction – plasminogen activation absorbance, OD405, dose response (AID 1914); format: functional, Streptococcus pyogenes M1 GAS;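 further: secreted streptokinase activity via plasminogen activation per viability signal from cell pellet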
# T5 sequence (P10520 whole entry): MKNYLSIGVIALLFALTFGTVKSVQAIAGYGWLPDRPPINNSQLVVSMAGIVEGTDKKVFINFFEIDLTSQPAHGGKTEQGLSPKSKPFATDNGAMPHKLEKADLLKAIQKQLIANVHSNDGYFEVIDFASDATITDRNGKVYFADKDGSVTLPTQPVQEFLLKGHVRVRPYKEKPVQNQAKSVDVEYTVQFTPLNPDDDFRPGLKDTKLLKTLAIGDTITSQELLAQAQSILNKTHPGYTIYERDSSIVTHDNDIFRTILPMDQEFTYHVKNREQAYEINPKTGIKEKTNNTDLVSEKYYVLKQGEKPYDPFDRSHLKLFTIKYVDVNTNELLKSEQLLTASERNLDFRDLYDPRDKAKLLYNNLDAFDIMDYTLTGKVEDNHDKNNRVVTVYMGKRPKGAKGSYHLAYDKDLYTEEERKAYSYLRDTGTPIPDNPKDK
# [13] = system: Streptococcus; assay: GAS UMAA2166 growth inhibition – luminescence, BacTiterGlo, counter-screen for streptokinase expression inhibitor project, dose response (AID 1915); format: functional, organism-based;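 further: potency for reduction of bacterial viability or growth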
# [14] = target: Heat shock protein HSP 90-alpha (Homo sapiens, UniProt P07900); format: functional, organism-based
# [15] = system: INS1; assay: INS-1E survival protection against cytokine death – cell-based, luminescence, retest, dose response (AID 449756); format: functional; settings: Rattus norvegicus;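 further: cell death triggered by IL-1 beta plus TNF-alpha plus IFN-gamma mixture; protective hits raise ATP signal compared with cytokine alone wells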
# [16] = target: Cytochrome P450 2C19 (Homo sapiens, UniProt P33261); assay: Cytochrome panel assay with activity outcomes. Panel member name: p450-cyp2c19 Compounds with AC50 equal or less than 10 uM are considered active; format: functional; settings: read-out: AC50
# Chain of Cytochrome P450 2C19 (P33261 whole entry): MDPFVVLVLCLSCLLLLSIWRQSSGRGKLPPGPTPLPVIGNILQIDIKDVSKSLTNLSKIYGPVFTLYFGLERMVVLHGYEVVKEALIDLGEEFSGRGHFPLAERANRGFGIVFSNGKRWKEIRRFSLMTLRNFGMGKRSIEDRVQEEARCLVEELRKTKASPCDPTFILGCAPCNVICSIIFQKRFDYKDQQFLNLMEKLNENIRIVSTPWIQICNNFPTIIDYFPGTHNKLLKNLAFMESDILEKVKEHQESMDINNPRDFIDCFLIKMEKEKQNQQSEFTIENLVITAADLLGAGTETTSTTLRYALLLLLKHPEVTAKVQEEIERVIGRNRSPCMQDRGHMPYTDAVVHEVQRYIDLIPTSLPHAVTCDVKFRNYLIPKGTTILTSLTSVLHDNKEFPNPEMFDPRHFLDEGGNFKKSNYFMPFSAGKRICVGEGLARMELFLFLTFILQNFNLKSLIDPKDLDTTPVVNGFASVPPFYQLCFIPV
# [17] = target: T6, Long-chain-fatty-acid--AMP ligase FadD28 (Mycobacterium tuberculosis, UniProt P9WQ59); assay: Fluorescence polarization aasay to screen for inhibitors that compete for the binding of FadD28 to a bisubstrate Measured in Biochemical System Using Plate Reader - 2147-01_Inhibitor_Dose_CherryPick_Activity.; format: functional, Mycobacterium tuberculosis H37Rv
# T6 sequence (P9WQ59 whole entry): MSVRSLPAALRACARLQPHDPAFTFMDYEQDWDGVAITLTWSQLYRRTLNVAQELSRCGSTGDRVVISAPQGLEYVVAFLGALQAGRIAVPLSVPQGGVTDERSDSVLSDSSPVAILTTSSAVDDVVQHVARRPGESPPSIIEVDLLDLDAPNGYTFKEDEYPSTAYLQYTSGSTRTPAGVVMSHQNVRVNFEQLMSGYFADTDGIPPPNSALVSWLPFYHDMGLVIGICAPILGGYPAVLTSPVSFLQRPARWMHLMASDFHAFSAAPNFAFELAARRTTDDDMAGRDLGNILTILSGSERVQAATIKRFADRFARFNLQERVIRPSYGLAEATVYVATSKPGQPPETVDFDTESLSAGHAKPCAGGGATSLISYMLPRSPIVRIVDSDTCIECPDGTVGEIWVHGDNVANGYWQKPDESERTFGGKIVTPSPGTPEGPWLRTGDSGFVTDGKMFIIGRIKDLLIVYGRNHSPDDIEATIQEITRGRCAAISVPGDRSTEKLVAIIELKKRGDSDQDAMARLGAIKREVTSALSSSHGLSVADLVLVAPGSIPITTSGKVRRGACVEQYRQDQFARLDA
# [18] = A549 cell cytotoxicity, dose response, cytotoxicity control, plate reader, cherry-pick, antagonist series (AID 743412); format: functional, cell-based
# [19] = toxicity toward HepG2 liver cells – cell-based, plate reader, cherry-pick, antagonist series, cytotoxicity control, dose response (AID 743416); format: functional
# [20] = blockers of bursicon-stimulated LGR2 cAMP reporter – cell-based, HEK293, CRE-luciferase reporter, cherry pick, set 2, dose response (AID 743343); format: functional;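 further: transfected cells were stimulated with diluted bursicon conditioned medium after compound addition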
# [21] = blockade of melanocortin 4 receptor signaling – cell-based, plate reader, cherry pick, counter-screen for LGR2 antagonist project, dose response (AID 743444); format: functional;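 further: transfected HEK 293 cells stimulated with alpha-MSH peptide; potency of inhibitors of the alpha-MSH evoked signal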
# [22] = viability loss in HEK293 cells – cell-based, plate reader, cherry-picked samples, cytotoxicity control, dose response (AID 743446); format: functional
compound,measurement,setting,value
CN(CC(=O)NCCc1ccccc1)S(=O)(=O)c1ccc(Br)s1,IC50,[1],> 100 µM (inactive)
O=C(Oc1ccccc1)N1CCC2(CCN(Cc3nccs3)CC2)CC1,AC50,[2],inconclusive
COc1cccc(-c2csc3ncnc(Sc4nnnn4C)c23)c1,AC50,[3],25 µM (active)
C=CCOc1ccc(CNC(C)(C)CO)cc1OC.Cl,AC50,[2],inconclusive
Cc1ccc(-c2ccnc3nc(Sc4ncc(C(F)(F)F)cc4Cl)nn23)cc1,IC50,[1],> 100 µM (inactive)
Cc1nc2cc(C(=O)NCc3ccc4c(c3)OCO4)ccc2n1-c1ccc(Br)cc1,IC50,[4],< 0.368 µM (active)
same,EC50,[5],> 53 µM (inactive)
same,IC50,[6],> 20 µM (inactive)
O=C1c2c(Cl)c(Cl)c(Cl)c(Cl)c2C(=O)N1c1nnc[nH]1,IC50,[7],5.3 µM (active)
same,IC50,[8],> 100 µM (inactive)
CCOc1ccc(-n2c(=S)sc3c(O)nc(SCC(=O)C(C)(C)C)nc32)cc1,CC50,[9],> 40 µM (active)
same,IC50,[10],54.2 µM (active)
O=C(c1cccc(S(=O)(=O)N2CCOCC2)c1)N(Cc1ccc(F)cc1)Cc1ccco1,IC50,[4],10.6 µM (active)
same,EC50,[5],> 53 µM (inactive)
same,IC50,[6],> 20 µM (inactive)
O=C(/C=C/c1cccc([N+](=O)[O-])c1)c1ccc([N+](=O)[O-])o1,EC50,[11],2.33 µM (active)
same,EC50,[12],> 150 µM (not active)
same,EC50,[13],8.2 µM (active)
same,AC50,[14],0.557 µM (active)
same,CC50,[9],30.7 µM (active)
same,AC50,[15],2.18 µM (active)
COc1ccc(-c2c(C(F)(F)F)nn3c(O)cc(-c4ccccc4)nc23)cc1,EC50,[11],8.01 µM (active)
same,EC50,[12],> 150 µM (not active)
same,EC50,[13],11.6 µM (active)
same,IC50,[4],4.6 µM (active)
same,EC50,[5],> 53 µM (inactive)
same,IC50,[6],15.7 µM (active)
O=C(c1ccco1)N1CCC2(CC1)CN(c1ncccn1)C2,AC50,[16],25.1 µM (inconclusive)
same,AC50,[2],inconclusive
O=C(O)c1cnc2ccccc2n1,IC50,[1],> 100 µM (inactive)
CC(C)c1ccc(NC(=O)C(=O)C2C(=O)Nc3ccccc32)cc1 (stereo not drawn),AC50,[17],98.2 µM (active)
O=C1C(NS(=O)(=O)c2cccs2)=C(N2CCN(c3cccc(Cl)c3)CC2)C(=O)c2ccccc21,CC50,[9],> 40 µM (active)
COc1cccc(NC(=O)CN2CCc3ccccc3C2)c1,IC50,[1],> 100 µM (inactive)
Oc1ccc(Br)cc1/C=N/n1c(S)nnc1C1CCCCC1,AC50,[17],8.32 µM (active)
CC(=O)[C@H]1CC[C@H]2[C@@H]3C=CC4=CC(=O)CC[C@@]4(C)[C@H]3CC[C@]12C,AC50,[2],inconclusive
COC(=O)c1cc(-c2ccc([N+](=O)[O-])cc2)[nH]n1,IC50,[7],> 100 µM (not active)
same,IC50,[8],> 100 µM (inactive)
Cc1ccc(-c2cc3onc(-c4ccccc4)c3c(=O)n2C)cc1,AC50,[3],9.76 µM (active)
same,AC50,[18],> 52 µM (inactive)
same,AC50,[19],27.6 µM (active)
same,AC50,[20],1.67 µM (active)
same,AC50,[21],3.13 µM (active)
same,AC50,[22],43.6 µM (active)

# Source: ChEMBL document CHEMBL1201862, “PubChem BioAssay data set” (2004)
